Patent US20230398092A1, “APPLICATION OF SESQUITERPENE LACTONE COMPOUND IN PREPARATION OF DRUGS FOR ALLEVIATING RADIOTHERAPY-INDUCED INJURIES” (ACCENDATECH CO., LTD., priority 2020, published 2023)
Like-named read-outs stand apart in the source and are kept apart here.

Tests used:
[1] = test system: U118-MG human brain astroblastoma cell strain; test: Anti-proliferation activity of ACT001 at different radiation doses (CCK-8); type: cell-based; conditions: ACT001 20 μM; for inhibition at 20 µM: Homo sapiens, U-118-MG, U118-MG cells, read-out: Inhibition rate (%) at different radiation doses
Method: The culture medium for U118-MG was DMEM, and the cells were cultured in a cell incubator at 37° C. with 5% CO2.
(§1) Recover of U118-MG cells: a cryopreservation tube was taken from liquid nitrogen, placed in water bath at 37° C. to thaw the cryopreservation solution, and centrifuged at 1000 rpm for 5 min. The supernatant was discarded, and the cells were resuspended in a complete culture medium and cultured under the condition of 37° C., 5% CO2.
(§2) When 70-80% of the bottom of the culture flask was covered by the cells, the culture medium was discarded by pipetting. The cells were washed with 2-3 mL of PBS buffer and digested with 1-2 mL of 0.25% pancreatin (just enough to cover the bottom of the flask). Immediately after the cell became round after being cultured in the incubator for a period of time, a complete culture medium was added to stop the digestion, and the cell suspensions after the digestion were combined and centrifuged at 1000 rpm for 5 min. The supernatant was discarded, and the cells were resuspended in a complete culture medium, gently pipetted, and counted. The cell density was adjusted to 2500 cells/well, and the cells were seeded into a 96-well plate at 90 μL/well.
Dosing was performed one day after the cells were seeded. Each plate was divided into a blank group, a negative control group and 10 compound groups, with 4-6 duplicate wells set for each group. 10 μL of the compound was added to each well. 3 h later, each well received a corresponding radiation dose. The cells were cultured at 37° C. for 24 h. After that, the culture medium was discarded, a corresponding fresh culture medium was added, and the plate was incubated for 48 h. At the end of incubation, 10 μL of CCK-8 solution (taking care not to create air bubbles in the wells, which would affect the OD readings) was added to each well, and the plate was incubated in the incubator for 1-4 h. The OD value at 450 nm was determined with a microplate reader.
The data were processed with an EXCEL software to solve inhibition rates at different concentrations, and IC50 values were obtained by fitting with SPSS. The mean and standard deviation of the IC50 values obtained three times were solved by SPSS.
Inhibition rate %={1−(OD value of compound well−OD value of blank well)/(OD value of control well−OD value of blank well)}×100%

[2] = test system: BEAS2B human normal lung epithelial cell strain; test: Selective radiotherapy protection effect on normal cells (CCK-8), normal lung epithelial cells; type: cell-based; conditions: ACT001 10 μM, 0-6 Gy, radiation 1 h after dosing, 48 h, FIG. 5
Method: (§3) The culture medium for H226 and BEAS2B cells was DMEM, and the cells were cultured in a cell incubator at 37° C. with 5% CO2.
(§4) Recover of H226 and BEAS2B cells: a cryopreservation tube was taken from liquid nitrogen, placed in water bath at 37° C. to thaw the cryopreservation solution, and centrifuged at 1000 rpm for 5 min.
(§5) The supernatant was discarded, and the cells were resuspended in a complete culture medium and cultured under the condition of 37° C., 5% CO2.
as §2, with “culture dish” for “culture flask”, “was discarded.” for “was discarded by pipetting.”, “with 1” for “with 1-2”, “counted. […]” for “counted. The cell density was adjusted to 2500 cells/well, and the cells were seeded into a 96-well plate at 90 μL/well.”
(§6) Dosing was performed 24 h after the cells were seeded. […] 10 μL of CCK-8 solution (taking care not to create air bubbles in the wells, which would affect the OD readings) was added to each well, and the plate was incubated in the incubator for 1-4 h. The OD value at 450 nm was determined with a microplate reader.

[3] = test system: H226 human squamous lung carcinoma cell strain; test: Selective radiotherapy protection effect (CCK-8), lung cancer cells; type: cell-based; conditions: ACT001 10 μM, 0-6 Gy, radiation 1 h after dosing, 48 h, FIG. 5
Method: as §3, §4, §5
as §2, with “culture dish” for “culture flask”, “was discarded.” for “was discarded by pipetting.”, “with 1” for “with 1-2”, “counted. […]” for “counted. The cell density was adjusted to 2500 cells/well, and the cells were seeded into a 96-well plate at 90 μL/well.”
as §6

[4] = test system: SYSY human neuroblastoma cell strain; test: Alleviation of radiation-induced neuronal cell death (CCK-8); type: cell-based; conditions: ACT001 1.25-10 μM, 0-10 Gy, radiation 1 h after dosing, 48 h, FIG. 6
Method: The culture medium for SYSY cells was DMEM, and the cells were cultured in a cell incubator at 37° C. with 5% CO2.
as §1, with “SYSY” for “U118-MG”
as §2, with “culture dish” for “culture flask”, “was discarded.” for “was discarded by pipetting.”, “with 1” for “with 1-2”, “counted. […]” for “counted. The cell density was adjusted to 2500 cells/well, and the cells were seeded into a 96-well plate at 90 μL/well.”
as §6

BALB/c mice [5] = test: Effect of ACT001 on survival of mice subjected to radiotherapy; type: in vivo
Excerpt: (§7) Adult BALB/c mice, 18-19 g, 8 weeks, female, SPF (Beijing) Biotechnology Co., Ltd., animal certificate number: SCXK (Beijing) 2016-0002. The test animals were bred in the common environment of the experimental animal center of the Institute of Radiation Medicine, Chinese Academy of Medical Sciences, with 5 animals in each cage. The padding was autoclaved special padding for mice, and the mice were fed with special sterilized feed, and were free to drink purified water. In the animal laboratory, the temperature was kept at about 25° C., the relative humidity was kept at 40%-70%, and the illumination was provided for 12 h daily.
In a preliminary experiment of radiation dose exploration, mice were subjected to radiation at 8 Gy, 10 Gy, 12 Gy, and 14 Gy, respectively. All animals died 18 days after the radiation. However, the animals in the 8 Gy group survived longer than the other groups, so the radiation dose of 8 Gy was selected for the formal experiment.
3.1 Experimental Procedures • (1) The lethal dose of a single radiation of mice was determined through a preliminary experiment; (2) the mice were randomly grouped by the body weight; • (3) ACT001 was pre-administered for 17 consecutive days, and the state of the animals was observed and the body weight was measured daily; • (4) the mice in groups (3) and (4) were subjected to radiation at a lethal dose after 17 days of the administration, and on the day of radiation, ACT001 was administered 1 h before the radiation; • (5) ACT001 was continuously administered for five weeks after the radiation, and the survival state of the animals was observed and the body weight was measured daily. The survival rate and survival time of mice in each group were calculated.
3.2 Grouping Regimen • (1) Blank control group • (2) ACT001-200 mg/kg group • (3) Radiotherapy-8 Gy group • (4) ACT001-200 mg/kg+radiotherapy-8 Gy group
A total of 4 groups were set in the experiment, with 10 animals in each group.
3.3 Administration Method • ACT001 (dissolved in normal saline) was administered intragastrically once daily, with an interruption once a week; • an equal volume of normal saline was administered intragastrically to the blank control group.
Data were expressed as x±s; statistical analysis among groups was performed using the t-test program in EXCEL software, and the logrank chi-square test method was used to evaluate whether there was statistical significance in each group of dead animals.

BALB/c mice [6] = test: Effect of ACT001 on radiation-induced neuronal apoptosis of mice (Tunel staining of whole brain); type: in vivo; conditions: ACT001 200 mg/kg intragastrically + brain radiation 2 Gy × 4 or single 4 Gy, day 14, Tunel staining, FIG. 7
Excerpt: as §7, with “2.3 Experimental Animal and Feeding Conditions • Adult” for “Adult”, “2019-0010.” for “2016-0002.”, “barrier” for “common”, “daily. 3. Experimental procedures and compound treatment” for “daily.”
3.1 Administration Method • ACT001 (dissolved in sterile normal saline) was administered intragastrically once daily; an equal volume of sterile normal saline was administered to the model control group; • The compound for each group was prepared freshly prior to use.
3.2 Experimental Grouping • (1) Model control group • (2) Radiotherapy control group (4 Gy) • (3) ACT001-200 mg/kg group • (4) ACT001-200 mg/kg+4 Gy group • (5) Radiotherapy low-dose control group (2 Gy) • (6) ACT001-200 mg/kg+2 Gy group • 10 animals in each group, 60 animals in total.
The mice were randomly grouped, with 10 mice in each group. […]

CC1=C2CC[C@@](C)(O)[C@@H]2[C@H]2OC(=O)[C@@H](CN(C)C)[C@@H]2CC1.O=C(O)/C=C/C(=O)O [ACT001, (3R,3aS,9R,9aS,9bS)-3-((dimethylamino)methyl)-9-hydroxy-6,9-dimethyl-3,3a,4,5,7,8,9,9a-octahydroazuleno[4,5]furan-2(9bH)-one fumarate]
Effect on the inhibition by radiation of the proliferation of U118-MG cells ([1]; FIG. 1): significantly enhance the inhibition effect of the radiation group
inhibition at 20 µM ([1]; 0 Gy): 19.2%
inhibition at 20 µM ([1]; 6 Gy): 22.8%
inhibition at 20 µM ([1]; 10 Gy): 33.8%
inhibition at 20 µM ([1]; 20 Gy): 36.1%
inhibition at 20 µM ([1]; 50 Gy): 75.6%
Effect on radiotherapy-induced injuries of BEAS2B cells [2]: significantly reduce radiotherapy-induced injuries of BEAS2B cells
Protection effect on H226 tumor cells against radiation [3]: no protection effect on H226 tumor cells
Effect on injuries of SYSY cells caused by radiation [4]: significantly reduce the injuries of SYSY cells caused by radiation
Day on which animal death occurred (BALB/c mice [5]; ACT001 200 mg/kg + radiotherapy 8 Gy group): 15 days
Survival time compared with the radiotherapy control-8 Gy group (BALB/c mice [5]; ACT001 200 mg/kg + radiotherapy 8 Gy, P<0.01): significantly prolonged
State and body weight of animals during pre-administration (BALB/c mice [5]; ACT001 200 mg/kg intragastrically, 17 consecutive days before radiotherapy): in good state with stable body weight
Survival rate (%) (BALB/c mice [5]; ACT001 200 mg/kg p.o. × 49 + systemic radiotherapy 8 Gy × 1, BALB/c mice): 70%
Body weight (g) End (BALB/c mice [5]; ACT001 200 mg/kg p.o. × 49 + systemic radiotherapy 8 Gy × 1, x ± s): 18.5 ± 2.9 g
Survival rate (%) (BALB/c mice [5]; ACT001 200 mg/kg p.o. × 49, no radiotherapy, BALB/c mice): 100%
Body weight (g) End (BALB/c mice [5]; ACT001 200 mg/kg p.o. × 49, no radiotherapy, x ± s): 19.1 ± 3.0 g
Apoptosis of neurons in the cerebral cortex compared with radiation-only groups (BALB/c mice [6]): significantly reduce the apoptosis of neurons
